Measurements: patent publication US11717480B2, “Extracellular vesicles and methods and uses thereof” (The Regents of the University of California, priority 2016, dated 2023)

Columns and labels:
EL4 cells = assay: In vitro MTT viability assay of EL4 cells; assay type: cell-based, mouse; details: highest concentrations tested, n=3, one-way ANOVA and Tukey HSD
Procedure: Turning now to FIG. 20. FIG. 20 describes the effect of therapeutic agents delivered by EVs of various embodiments as compared to other forms of drug delivery. […] (See, Immordino, et al., Int. J. Nanomedicine 1, 297-315 (2016), the disclosures being incorporated herein by reference.)
EL4 cells were treated over 24 or 48 hours with DOX, DOXIL, DOX-EVs, or unloaded EVs. […] It is important to note that DOX-loaded EVs would not be expected to outperform free DOX in vitro study since their primary benefits (improved biocompatibility and extended release) are critical factors in an in vivo delivery setting.
In vitro viability studies. EL4 cells were plated at 20,000 cells/well in 100 μL of DMEM with 10% FBS. Cells were incubated for 24 hours or 48 hours with the concentrations of DOX, DOXIL or DOX-EVs described in FIG. 20. An MTT assay was performed and cells were incubated with 1 mg/mL of MTT for 1 hour. The crystals were dissolved in 100 μL of DMSO and the absorbance of each well was characterized at 560 nm.
Turning now to FIG. 20. FIG. 20 describes the effect of therapeutic agents delivered by EVs of as compared to other forms of drug delivery. […] (See, Immordino, et al., Int. J. Nanomedicine 1, 297-315 (2016), the disclosures being incorporated herein by reference.)
EL4 cells were treated over 24 or 48 hours with DOX, DOXIL, DOX-EVs, or unloaded EVs. […]

[1] = Biodistribution: drug content of organs 24 hours after treatment; assay type: in vivo, C57BL/6 mice; details: lung, liver, heart, spleen, tumor
Procedure: Turning to FIG. 21C, serum was collected from C57BL/6 mice treated with DOX, DOXIL or DOX-EVs and analyzed for drug content. Concentration of DOX in the serum (n=3) was measured over 12 hours by a series of blood collections and fluorescence quantifications. […] Twenty-four hours after treatment, the mice were sacrificed and their organs were assessed for drug content.
For pharmacokinetics and biodistribution experiments, tumors were established and mice were treated as described above. Tail vein blood collection was completed at the time points indicated and suspended in acidified alcohol. The blood was analyzed for DOX concentration by fluorescence spectroscopy (ex. 485 nm, em. 595 nm). 24 hours post treatment, the mice were sacrificed and the organs were extracted. The organs were cryopulverized and resuspended in acidified alcohol for fluorescence spectroscopy (ex. 485 nm, em. 595 nm) analysis.

Which “Viability of EL4 cells versus controls” value (EL4 cells) does the source give for `COc1cccc2c1C(=O)c1c(O)c3c(c(O)c1C2=O)C[C@@](O)(C(=O)CO)C[C@@H]3O[C@H]1C[C@H](N)[C@H](O)[C@H](C)O1` [DOX, doxorubicin] here?
Its value is “statistically significant (p<0.01) from the controls”.

And the “Accumulation of drug in organs” value [1]?
Its value is “tends to accumulate in the lung”.
